The values below come from patent US20240025906A1 (NEURON23, INC., priority 2022, published 2024).

The target in one assay is T1, TYK2 JH2 (Homo sapiens, UniProt P29597).
T1 construct: purchased DiscoverX (KINOMEscan KdELECT service); host or cells: E. coli BL21-derived (T7 phage display) or HEK-293
Kind of assay: TYK2 JH2 binding assay (KINOMEscan KdELECT competitive binding). The conditions noted are these: TYK2 JH2 domain, KINOMEscan KdELECT (Assay A); read-out: Biochemical TYK2_DiscoverX_JH2_BND_Kd. An outline of the steps:
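JH2-domain fragment, expressed as T7 phage tag in BL21-derived E. coli or DNA-tagged from HEK-293, competed with test compound against bead-immobilized biotinylated ligand in binding buffer (0.9% DMSO). 1 h shaking at room temperature; bound kinase eluted with 0.5 μM free ligand and quantified by qPCR. Kd from 11-point 3-fold dilutions.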

Assay [1] has as its system JAK1/TYK2 pSTAT5 (Tyr694/699) in THP-1 cell line. Kind of assay: IFNa-stimulated JAK1/TYK2 pSTAT5 (Tyr694/699) inhibition cellular assay, AlphaLISA. The class given is cell-based. The settings on record: Homo sapiens; THP-1 cells, IFNa-stimulated, AlphaLISA (Assay B); read-out: Cellular_THP1_IFNa-pSTATS_TYK2. In short, it runs like this:
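THP-1 cells (2e4/well in HBSS) were preincubated with compound (8 points, 6-fold steps from 10000 nM final) for 1 h at 37 °C, then stimulated with IFNa (added at 100 ng/mL) for 30 min. Lysate pSTAT5 was read by AlphaLISA at 615 nm. IC50 came from a 4-parameter fit with bottom 0 and Hill −1.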

Some results are limits rather than exact numbers.

T1 sequence (P29597 589-875 limits assumed): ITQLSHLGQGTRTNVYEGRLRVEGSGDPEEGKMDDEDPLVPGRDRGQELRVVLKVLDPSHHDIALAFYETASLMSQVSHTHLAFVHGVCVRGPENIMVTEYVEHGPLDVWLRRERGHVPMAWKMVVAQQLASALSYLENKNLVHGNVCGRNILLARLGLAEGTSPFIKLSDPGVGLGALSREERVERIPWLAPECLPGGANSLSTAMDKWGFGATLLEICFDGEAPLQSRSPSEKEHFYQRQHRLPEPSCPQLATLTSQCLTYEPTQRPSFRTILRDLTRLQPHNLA

Turning to `CNc1ncc(C#Cc2c(Cl)cc(OC)cc2Cl)c2cc(NC(=O)C3CC3)ncc12` [Example 636, N-(5-((2,6-dichloro-4-methoxyphenyl)ethynyl)-8-(methylamino)-2,7-naphthyridin-3-yl)cyclopropanecarboxamide], the Kd at TYK2 JH2 was ≤ 100 nM. Also, the IC50 in assay [1] was > 500 nM.

Take `CNc1ncc(C#Cc2ccc(S(=O)(=O)C3CC3)cc2)c2cc(NC(=O)C3CC3)ncc12` [Example 637, N-(5-((4-(cyclopropylsulfonyl)phenyl)ethynyl)-8-(methylamino)-2,7-naphthyridin-3-yl)cyclopropanecarboxamide]: at TYK2 JH2, the Kd was ≤ 100 nM. Also, in assay [1], the IC50 was ≤ 500 nM.

Consider `CNc1ncc(C#Cc2ccc(OC3CC3)cc2)c2cc(NC(=O)C3CC3)ncc12` [Example 638, N-(5-((4-cyclopropoxyphenyl)ethynyl)-8-(methylamino)-2,7-naphthyridin-3-yl)cyclopropanecarboxamide], for which the Kd on TYK2 JH2 is ≤ 100 nM. Besides, the IC50 in assay [1] is ≤ 500 nM.

Consider `CNc1ncc(C#Cc2ccc(N3CCOCC3)cc2C)c2cc(NC(=O)C3CC3)ncc12` [Example 639, N-(5-((2-methyl-4-morpholinophenyl)ethynyl)-8-(methylamino)-2,7-naphthyridin-3-yl)cyclopropanecarboxamide], for which, at TYK2 JH2, the Kd is ≤ 100 nM. Besides, the IC50 in assay [1] is ≤ 500 nM.

On to `CNc1ncc(C#Cc2ccc(S(C)(=O)=O)cn2)c2cc(NC(=O)C3CC3)ncc12` [Example 640, N-(8-(methylamino)-5-((5-(methylsulfonyl)pyridin-2-yl)ethynyl)-2,7-naphthyridin-3-yl)cyclopropanecarboxamide], for which the Kd on TYK2 JH2 was ≤ 100 nM. Also, the IC50 in assay [1] was ≤ 500 nM.

Consider `CNc1ncc(C#Cc2cccnn2)c2cc(NC(=O)C3CC3)ncc12` [Example 641, N-(8-(methylamino)-5-(pyridazin-3-ylethynyl)-2,7-naphthyridin-3-yl)cyclopropanecarboxamide], for which the Kd at TYK2 JH2 was ≤ 100 nM. Moreover, in assay [1], the IC50 was ≤ 500 nM.

With `CNc1ncc(C#Cc2ccc3oc(CO)cc3c2)c2cc(NC(=O)C3CC3)ncc12` [Example 642, N-(5-((2-(hydroxymethyl)benzofuran-5-yl)ethynyl)-8-(methylamino)-2,7-naphthyridin-3-yl)cyclopropanecarboxamide], the Kd on TYK2 JH2 was ≤ 100 nM. Further, the IC50 in assay [1] is ≤ 500 nM.

Consider `CNc1ncc(C#Cc2ncc(OC)cc2Cl)c2cc(NC(=O)C3CC3)ncc12` [Example 643, N-(5-((3-chloro-5-methoxypyridin-2-yl)ethynyl)-8-(methylamino)-2,7-naphthyridin-3-yl)cyclopropanecarboxamide], for which the Kd at TYK2 JH2 was ≤ 100 nM. The IC50 in assay [1] is ≤ 500 nM.

With `CNc1ncc(C#Cc2ccc(OC(F)(F)F)cn2)c2cc(NC(=O)C3CC3)ncc12` [Example 644, N-(8-(methylamino)-5-((5-(trifluoromethoxy)pyridin-2-yl)ethynyl)-2,7-naphthyridin-3-yl)cyclopropanecarboxamide], the Kd at TYK2 JH2 is ≤ 100 nM. Further, in assay [1], the IC50 was ≤ 500 nM.

In the case of `CNc1ncc(C#Cc2ccc(OC(F)F)cn2)c2cc(NC(=O)C3CC3)ncc12` [Example 645, N-(5-((5-(difluoromethoxy)pyridin-2-yl)ethynyl)-8-(methylamino)-2,7-naphthyridin-3-yl)cyclopropanecarboxamide], the Kd at TYK2 JH2 is ≤ 100 nM. Also, the IC50 in assay [1] was ≤ 500 nM.

`CNc1ncc(C#Cc2ccncc2C(F)(F)F)c2cc(NC(=O)C3CC3)ncc12` [Example 646, N-(8-(methylamino)-5-((3-(trifluoromethyl)pyridin-4-yl)ethynyl)-2,7-naphthyridin-3-yl)cyclopropanecarboxamide]: the Kd at TYK2 JH2 was ≤ 100 nM. For the same molecule, the IC50 in assay [1] was ≤ 500 nM.

`CNc1ncc(C#Cc2ccc3nc(C)n(C)c3c2)c2cc(NC(=O)C3CC3)ncc12` [Example 647, N-(5-((1,2-dimethyl-1H-benzo[d]imidazol-6-yl)ethynyl)-8-(methylamino)-2,7-naphthyridin-3-yl)cyclopropanecarboxamide]: the Kd at TYK2 JH2 was ≤ 100 nM. Also, the IC50 in assay [1] was ≤ 500 nM.

Turning to `CNc1ncc(C#Cc2ccc(COC)cc2)c2cc(NC(=O)C3CC3)ncc12` [Example 648, N-(5-((4-(methoxymethyl)phenyl)ethynyl)-8-(methylamino)-2,7-naphthyridin-3-yl)cyclopropanecarboxamide], on TYK2 JH2, the Kd was ≤ 100 nM. For the same molecule, the IC50 in assay [1] is ≤ 500 nM.

As to `CNc1ncc(C#Cc2ccc3c(cnn3C)c2)c2cc(NC(=O)C3CC3)ncc12` [Example 649, N-(5-((1-methyl-1H-indazol-5-yl)ethynyl)-8-(methylamino)-2,7-naphthyridin-3-yl)cyclopropanecarboxamide], the Kd on TYK2 JH2 was ≤ 100 nM. The IC50 in assay [1] was ≤ 500 nM.

Consider `CNc1ncc(C#Cc2ccc(SC)cc2)c2cc(NC(=O)C3CC3)ncc12` [Example 650, N-(8-(methylamino)-5-((4-(methylthio)phenyl)ethynyl)-2,7-naphthyridin-3-yl)cyclopropanecarboxamide], for which, at TYK2 JH2, the Kd is ≤ 100 nM. Also, the IC50 in assay [1] is ≤ 500 nM.

For `CNc1ccc(C#Cc2cnc(NC)c3cnc(NC(=O)C4CC4)cc23)cc1` [Example 651, N-(8-(methylamino)-5-((4-(methylamino)phenyl)ethynyl)-2,7-naphthyridin-3-yl)cyclopropanecarboxamide], on TYK2 JH2, the Kd was ≤ 100 nM. The IC50 in assay [1] is ≤ 500 nM.

`CNc1ncc(C#Cc2ccccc2C(C)(C)O)c2cc(NC(=O)C3CC3)ncc12` [Example 652, N-(5-((2-(2-hydroxypropan-2-yl)phenyl)ethynyl)-8-(methylamino)-2,7-naphthyridin-3-yl)cyclopropanecarboxamide]: at TYK2 JH2, the Kd is ≤ 100 nM. Also, the IC50 in assay [1] is ≤ 500 nM.

As to `CNc1ncc(C#Cc2cnn(C)n2)c2cc(NC(=O)C3CC3)ncc12` [Example 653, N-(5-((2-methyl-2H-1,2,3-triazol-4-yl)ethynyl)-8-(methylamino)-2,7-naphthyridin-3-yl)cyclopropanecarboxamide], on TYK2 JH2, the Kd is ≤ 100 nM. For the same molecule, the IC50 in assay [1] is ≤ 500 nM.

Consider `CNc1ncc(C#Cc2ccc(OC(F)F)cc2)c2cc(NC(=O)C3CC3)ncc12` [Example 654, N-(5-((4-(difluoromethoxy)phenyl)ethynyl)-8-(methylamino)-2,7-naphthyridin-3-yl)cyclopropanecarboxamide], for which the Kd at TYK2 JH2 was ≤ 100 nM. For the same molecule, in assay [1], the IC50 was ≤ 500 nM.

As to `CNc1ncc(C#Cc2ccc(C(C)(F)F)cc2)c2cc(NC(=O)C3CC3)ncc12` [Example 655], the Kd on TYK2 JH2 was ≤ 100 nM. The IC50 in assay [1] is ≤ 500 nM.

With `CNc1ncc(C#Cc2ccc(OCF)cc2)c2cc(NC(=O)C3CC3)ncc12` [Example 656, N-(5-((4-(fluoromethoxy)phenyl)ethynyl)-8-(methylamino)-2,7-naphthyridin-3-yl)cyclopropanecarboxamide], at TYK2 JH2, the Kd was ≤ 100 nM. Further, the IC50 in assay [1] was ≤ 500 nM.

Take `CNc1ncc(C#Cc2ccc(C(F)(F)F)cn2)c2cc(NC(=O)C3CC3)ncc12` [Example 657, N-(8-(methylamino)-5-((5-(trifluoromethyl)pyridin-2-yl)ethynyl)-2,7-naphthyridin-3-yl)cyclopropanecarboxamide]: the Kd at TYK2 JH2 is ≤ 100 nM. The IC50 in assay [1] is ≤ 500 nM.

`CNc1ncc(C#Cc2ccc(C(F)F)cn2)c2cc(NC(=O)C3CC3)ncc12` [Example 658]: the Kd on TYK2 JH2 was ≤ 100 nM. The IC50 in assay [1] was ≤ 500 nM.

With `CNc1ncc(C#Cc2ccc(C)cn2)c2cc(NC(=O)C3CC3)ncc12` [Example 659, N-(8-(methylamino)-5-((5-methylpyridin-2-yl)ethynyl)-2,7-naphthyridin-3-yl)cyclopropanecarboxamide], the Kd at TYK2 JH2 was ≤ 100 nM. In addition, the IC50 in assay [1] was ≤ 500 nM.

Regarding `CNc1ncc(C#Cc2ccc(CC(F)(F)F)cn2)c2cc(NC(=O)C3CC3)ncc12` [Example 660, N-(8-(methylamino)-5-((5-(2,2,2-trifluoroethyl)pyridin-2-yl)ethynyl)-2,7-naphthyridin-3-yl)cyclopropanecarboxamide], the Kd on TYK2 JH2 was ≤ 100 nM. In addition, the IC50 in assay [1] is ≤ 500 nM.

Regarding `CNc1ncc(C#Cc2ccc(C#N)cn2)c2cc(NC(=O)C3CC3)ncc12` [Example 661, N-(5-((5-cyanopyridin-2-yl)ethynyl)-8-(methylamino)-2,7-naphthyridin-3-yl)cyclopropanecarboxamide], the Kd at TYK2 JH2 is ≤ 100 nM. In addition, the IC50 in assay [1] was ≤ 500 nM.

Regarding `CNc1ncc(C#Cc2ccc(C(C)(C)O)cn2)c2cc(NC(=O)C3CC3)ncc12` [Example 662, N-(5-((5-(2-hydroxypropan-2-yl)pyridin-2-yl)ethynyl)-8-(methylamino)-2,7-naphthyridin-3-yl)cyclopropanecarboxamide], the Kd on TYK2 JH2 is ≤ 100 nM. Besides, the IC50 in assay [1] is ≤ 500 nM.

For `CNc1ncc(C#Cc2cc(C)c(OC)cn2)c2cc(NC(=O)C3CC3)ncc12` [Example 663, N-(5-((5-methoxy-4-methylpyridin-2-yl)ethynyl)-8-(methylamino)-2,7-naphthyridin-3-yl)cyclopropanecarboxamide], the Kd at TYK2 JH2 is ≤ 100 nM. In addition, the IC50 in assay [1] is ≤ 500 nM.

Consider `CNc1ncc(C#Cc2ncc(OC)cc2C)c2cc(NC(=O)C3CC3)ncc12` [Example 664, N-(5-((5-methoxy-3-methylpyridin-2-yl)ethynyl)-8-(methylamino)-2,7-naphthyridin-3-yl)cyclopropanecarboxamide], for which the Kd at TYK2 JH2 was ≤ 100 nM. The IC50 in assay [1] was ≤ 500 nM.
